According to US9809604B2, “DGAT1 inhibitor and preparation method and use thereof” (Qingdao Huanghai Pharmaceutical Co., Ltd., priority 2013, dated 2017):
Read-outs that look alike come from different tables or passages of the source.

Biological target: T1, DGAT1 (Homo sapiens, UniProt O75907)
T1 sequence (O75907 1-488): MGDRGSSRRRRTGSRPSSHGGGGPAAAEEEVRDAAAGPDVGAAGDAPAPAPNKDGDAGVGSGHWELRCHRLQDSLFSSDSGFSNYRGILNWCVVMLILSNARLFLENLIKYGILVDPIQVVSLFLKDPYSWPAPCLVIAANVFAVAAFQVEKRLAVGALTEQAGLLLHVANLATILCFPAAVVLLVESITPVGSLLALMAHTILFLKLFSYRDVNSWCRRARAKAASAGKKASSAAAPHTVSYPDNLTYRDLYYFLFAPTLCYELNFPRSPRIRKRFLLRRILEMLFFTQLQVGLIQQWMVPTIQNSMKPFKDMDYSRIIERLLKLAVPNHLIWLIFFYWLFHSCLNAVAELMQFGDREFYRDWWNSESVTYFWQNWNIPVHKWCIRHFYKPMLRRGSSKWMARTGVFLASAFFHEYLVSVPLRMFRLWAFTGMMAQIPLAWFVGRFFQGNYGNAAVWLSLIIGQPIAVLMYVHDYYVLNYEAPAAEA
Assay: Human DGAT1 IC50 enzyme assay (Flashplate, 14C-labeled acyl-CoA)
Assay type: biochemical
Design: made in house
Method: The ability of compounds to inhibit DGAT enzyme activity is determined by calculating IC50 values of test compounds. Ki values of DGAT1 are calculated as follows: Cheng-Prusoff equation: Ki=IC50/(1+[S]/Km)
(1) Human DGAT1 IC50 (nM) Experiment
Human DGAT1 activity was determined as follows:
Expressing human DGAT1 enzyme, used diacylglycerol and 14C-labeled acyl-CoA as the substrate, choose PE Company Flashplate testing board to build DGAT1 enzyme reaction system. 14C-labeled acyl-CoA binds to diacylglycerol by covalent bonding after enzymology reaction, and generates the product of 14C-labeled triglyceride. 14C-labeled acyl-CoA substrate is dissolved in reaction solution and 14C-labeled triglyceride product combine with phospholipids of Flashplate plate bottom layer, thus effectively separate labeled substrates and products. The radioactive of 14C-labeled triglyceride which is combined with phospholipid layer is counted, and the potencies of DGAT-1 inhibition for the compounds are determined by calculating the IC50 values.

[1] = average of first and second, read-out: hDGAT1 IC50(nM) Average
[2] = first determination, read-out: hDGAT1 IC50(nM) First
[3] = second determination, read-out: hDGAT1 IC50(nM) Second

SMILES | IC50 [1] | IC50 [2] | IC50 [3]
Nc1ncnc2c1C(=O)N(c1ccc3c(c1)CCC(OCC(F)(F)F)C3)CCO2 (single isomer, unassigned) [Compound 108 (peak2), 4-amino-6-(6-(2,2,2-trifluoroethoxy)-5,6,7,8-tetrahydonaphthalen-2-yl)-7,8-dihydropyrimido[5,4-f][1,4]oxazepin-5-(6H)-one] | 52.6 nM | 56.4 nM | 48.8 nM
Nc1ncnc2c1C(=O)N(c1ccc3c(c1)CCC(OCC(F)(F)F)C3)CCO2 (single isomer, unassigned; peak1) [Compound 105 (peak1), 4-amino-6-(6-(2,2,2-trifluoroethoxy)-5,6,7,8-tetrahydonaphthalen-2-yl)-7,8-dihydropyrimido[5,4-f][1,4]oxazepin-5-(6H)-one] | 73.3 nM | 103 nM | 43.3 nM
Nc1ncnc2c1C(=O)N(c1ccc(N3CCN(CC(=O)O)C3=O)c(Cl)c1)CCO2 [Compound 1, 2-(3-(4-(4-amino-5-oxo-7,8-dihydropyrimido[5,4-f][1,4]oxazepin-6(5H)-yl)-2-chlorophenyl)-2-oxoimidazolidin-1-yl)acetic acid] | 48.1 nM | 53.3 nM | 43 nM
Nc1ncnc2c1C(=O)N(c1ccc(N3CCN(CC(=O)O)C3=O)c(F)c1)CCO2 [Compound 2, 2-(3-(4-(4-amino-5-oxo-7,8-dihydropyrimido[5,4-f][1,4]oxazepin-6(5H)-yl)-2-fluorophenyl)-2-oximidazolidin-1-yl)acetate acid] | 52.9 nM | 64.1 nM | 41.6 nM
Cc1cc(N2CCOc3ncnc(N)c3C2=O)ccc1N1CCN(CC(=O)O)C1=O [Compound 3, 2-(3-(4-(4-amino-5-oxo-7,8-dihydropyrimido[5,4-f][1,4]oxazepin-6(5H)-yl)-2-methylphenyl)-2-oxoimidazolidin-1-yl)acetate acid] | 65.2 nM | 60.9 nM | 69.5 nM
CCc1cc(N2CCOc3ncnc(N)c3C2=O)cc(C)c1N1CCN(CC(=O)O)C1=O [Compound 4, 2-(3-(4-(4-amino-5-oxo-7,8-dihydropyrimido[5,4-f][1,4]oxazepin-6(5H)-yl)-2-ethyl-6-methylphenyl)-2-oxoimidazolidin-1-yl)acetic acid] | 39.5 nM | 46.2 nM | 32.9 nM
CCc1cc(N2CCOc3ncnc(N)c3C2=O)ccc1N1CCN(CC(=O)O)C1=O [Compound 5, 2-(3-(4-(4-amino-5-oxo-7,8-dihydropyrimido[5,4-f][1,4]oxazepin-6(5H)-yl)-2-ethylphenyl)-2-oxoimidazolidin-1-yl)acetic acid] | 60.3 nM | 51.6 nM | 69 nM
Nc1ncnc2c1C(=O)N(c1ccc(N3CCN(CCC(=O)O)C3=O)c(Cl)c1)CCO2 [Compound 6] | 31.5 nM | 24.4 nM | 38.5 nM
Nc1ncnc2c1C(=O)N(c1ccc(N3CCN(CC(=O)O)C3=O)c(OC(F)(F)F)c1)CCO2 [Compound 7, 2-(3-(4-(4-amino-5-oxo-7,8-dihydropyrimido[5,4-f][1,4]oxazepin-6(5H)-yl)-2-(trifluoromethoxy)phenyl)-2-oxoimidazolidin-1-yl)acetic acid] | 36.9 nM | 43.5 nM | 30.4 nM
Nc1ncnc2c1C(=O)N(c1ccc(N3CCN(CC(F)(F)F)C3=O)c(Cl)c1)CCO2 [Compound 8, 4-amino-6-(3-chloro-4-(2-oxo-3-(2,2,2-trifluoroethyl)imidazolidin-1-yl)phenyl)-7,8-dihydropyrimido[5,4-f][1,4]oxazepin-5(6H)one] | 38.9 nM | 41.9 nM | 35.9 nM
CCc1cc(N2CCOc3ncnc(N)c3C2=O)cc(CC)c1N1CCN(CC(=O)O)C1=O [Compound 19] | 101 nM | 136 nM | 66.5 nM
Nc1ncnc2c1C(=O)N(c1ccc(N3CCN(CC(=O)O)C3=O)c(C(F)(F)F)c1)CCO2 [Compound 25, 2-(3-(4-(4-amino-5-oxo-7,8-dihydropyrimido [5,4-f][1,4]oxazepin-6(5H)-yl)-2-(trifluoromethyl)phenyl)-2-oxoimidazolidin-1-yl)acetic acid] | 58.9 nM | 57.2 nM | 60.7 nM
Cc1cc(N2CCOc3ncnc(N)c3C2=O)cc(F)c1N1CCN(CC(=O)O)C1=O [Compound 26, 2-(3-(4-(4-amino-5-oxo-7,8-dihydropyrimido [5,4-f][1,4]oxazepin-6(5H)-yl)-2-fluoro-6-methylphenyl)-2-oxoimidazolidin-1-yl) acetic acid] | 50.6 nM | 41.3 nM | 60 nM
Cc1cc(N2CCOc3ncnc(N)c3C2=O)cc(Cl)c1N1CCN(CC(=O)O)C1=O [Compound 27] | 62.4 nM | 69 nM | 55.7 nM
Nc1ncnc2c1C(=O)N(c1ccc(-n3ccn(CC(=O)O)c3=O)c(Cl)c1)CCO2 [Compound 28, 2-(3-(4-(4-amino-5-oxo-7,8-dihydropyrimido [5,4-f][1,4]oxazepin-6(5H)-yl)-2-chlorophenyl)-2-oxo-2,3-dihydro-1H-imidazol-1-yl)acetic acid] | 41.8 nM | 45.6 nM | 37.9 nM
CC(C)CN1CCN(c2ccc(N3CCOc4ncnc(N)c4C3=O)cc2Cl)C1=O [Compound 29, 4-amino-6-(3-chloro-4-(3-isobutyl-2-oxoimidazolidin-1-yl)phenyl)-7,8-dihydropyrimido [5,4-f][1,4]oxazepin-5(6H)-one] | 35.2 nM | 37.4 nM | 32.9 nM
Nc1ncnc2c1C(=O)N(c1ccc(N3CCN(CC4CC4)C3=O)c(Cl)c1)CCO2 [Compound 30, 4-amino-6-(3-chloro-4-(3-(cyclopropylmethyl)-2-oxoimidazolidin-1-yl)phenyl)-7,8-dihydropyrimido [5,4-f][1,4]oxazepin-5(6H)-one] | 24.4 nM | 25.4 nM | 23.4 nM
CC(C)(F)CN1CCN(c2ccc(N3CCOc4ncnc(N)c4C3=O)cc2Cl)C1=O [Compound 31, 4-amino-6-(3-chloro-4-(3-(2-fluoro-2-methylpropyl)-2-oxoimidazolidin-1-yl)phenyl)-7,8-dihydropyrimido[5,4-f][1,4]oxazepin-5(6H)-one] | 23.5 nM | 23.6 nM | 23.4 nM
CC(C)(C(=O)O)n1cc(-c2ccc(N3CCOc4ncnc(N)c4C3=O)cc2Cl)cn1 [Compound 33, 2-(4-(4-(4-amino-5-oxo-7,8-dihydropyrimido[5,4-f][1,4]oxazepin-6(5H)-yl)-2-chlorophenyl)-1H-pyrazol-1-yl)-2-methylpropanoic acid] | 36.8 nM | 26.9 nM | 46.7 nM
CC(C(=O)O)n1cc(-c2ccc(N3CCOc4ncnc(N)c4C3=O)cc2Cl)cn1 (stereo not drawn) [Compound 34, 2-(4-(4-(4-amino-5-oxo-7,8-dihydropyrimido[5,4-f][1,4]oxazepin-6(5H)-yl)-2-chlorophenyl)-1H-pyrazol-1-yl) propanoic acid] | 55.8 nM | 78 nM | 33.6 nM
Nc1ncnc2c1C(=O)N(c1ccc(-c3cnn(CCC(=O)O)c3)c(Cl)c1)CCO2 [Compound 35, 3-(4-(4-(4-amino-5-oxo-7,8-dihydropyrimido[5,4-f][1,4]oxazepin-6(5H)-yl)-2-chlorophenyl)-1H-pyrazol-1-yl)propanoic acid] | 25.8 nM | 24.8 nM | 26.7 nM
Cc1nn(CC(=O)O)cc1-c1ccc(N2CCOc3ncnc(N)c3C2=O)cc1Cl [Compound 36, 2-(4-(4-(4-amino-5-oxo-7,8-dihydropyrimido[5,4-f][1,4]oxazepin-6(5H)-yl)-2-chlorophenyl)-3-methyl-1H-pyrazol-1-yl)acetic acid] | 29.3 nM | 37.7 nM | 21 nM
Nc1ncnc2c1C(=O)N(c1ccc(-c3cnn(CCC(=O)O)c3)c(F)c1)CCO2 [Compound 37, 3-(4-(4-(4-amino-5-oxo-7,8-dihydropyrimido[5,4-f][1,4]oxazepin-6(5H)-yl)-2-fluorophenyl)-1H-pyrazol-1-yl) propanoic acid] | 79.6 nM | 84.6 nM | 74.5 nM
Cc1nn(CCC(=O)O)c(C)c1-c1ccc(N2CCOc3ncnc(N)c3C2=O)cc1Cl [Compound 38, 3-(4-(4-(4-amino-5-oxo-7,8-dihydropyrimido[5,4-f][1,4]oxazepin-6(5H)-yl)-2-chlorophenyl)-3,5-dimethyl-1H-pyrazol-1-yl)propanoic acid] | 50.7 nM | 46.5 nM | 55 nM
Nc1ncnc2c1C(=O)N(c1ccc(-c3cn(CC(=O)O)nc3C(F)(F)F)cc1)CCO2 [Compound 39, 2-(4-(4-(4-amino-5-oxo-7,8-dihydropyrimido[5,4-f][1,4]oxazepin-6(5H)-yl)phenyl)-3-(trifluoromethyl)-1H-pyrazol-1-yl)acetic acid] | 98.4 nM | 72.9 nM | 124 nM
